Measurements as given in patent publication US6362172B1, “Water soluble prodrugs of azole compounds” (Bristol-Myers Squibb Company, priority 2000, dated 2002).
In brackets after ≈: the same amount, converted by molar mass.

Assays:
[1] = aqueous solubility; details: for solubility: aqueous; for solubility and stability of the crystalline salt: single polymorph crystalline solids
[2] = conversion of prodrug to parent drug in vivo
[3] = stability in solution

| Compound | solubility ([1]; pH 4.3, aqueous buffer) [µg/mL] | solubility ([1]; pH 7, aqueous buffer) [µg/mL] | conversion to parent drug in vivo [2] | stability in solution [3] | solubility and stability of the crystalline salt [1] |
| --- | --- | --- | --- | --- | --- |
| C[C@@H](c1nc(-c2ccc(C#N)cc2)cs1)C(Cn1cncn1)(OCOP(=O)(O)O)c1ccc(F)cc1F (stereo partly drawn) [Example 2, (2R,3R)-3-[4-(4-cyanophenyl)thiazol-2-yl]-2-(2,4-difluorophenyl)-1-(1H-1,2,4,- triazol-1-yl)-2-[(dihydrogenphosphonoxy)methoxy]butane] | 5000 to 6000 (≈ 9.13 to 11 mM) | > 10000 | readily converted to parent drug in vivo | stable in solution | – |
| C[C@@H](c1nc(-c2ccc(C#N)cc2)cs1)[C@@](Cn1cncn1)(OCOP(=O)(O)O)c1ccc(F)cc1F.NCCCC[C@H](N)C(=O)O.NCCCC[C@H](N)C(=O)O [Example 3, Bis lysine salt of (2R,3R)-3-[4-(4-cyanophenyl)thiazol-2-yl]-2-(2,4-difluorophenyl)-1-(1H-1,2,4-triazol-1-yl)-2-[(dihydrogenphosphonoxy)methoxy]butane] | – | – | – | – | good solubility and stability |
| CC(C)(C)N.C[C@@H](c1nc(-c2ccc(C#N)cc2)cs1)[C@@](Cn1cncn1)(OCOP(=O)(O)O)c1ccc(F)cc1F [Example 4, Tert-butyl amine salt of (2R,3R)-3-[4-(4-cyanophenyl)thiazol-2-yl]-2-(2,4-difluorophenyl)-1-(1H-1,2,4-triazol-1-yl)-2-[(dihydrogenphosphonoxy)methoxy]butane] | – | – | – | – | good solubility and stability |
